The values that follow come from patent publication US4127720A, “Pyrimido[2,1-a]isoquinoline derivatives having antiallergy activity” (priority 1977, dated 1978).

Read-outs that look alike come from different tables or passages of the source.

In the assay the test system is reagin-mediated rat Passive Cutaneous Anaphylaxis (PCA). The assay is described as follows: Reagin-mediated rat Passive Cutaneous Anaphylaxis (PCA) screening test. It counts as in vivo, Sprague-Dawley rats. How it is done: The reagin-mediated rat Passive Cutaneous Anaphylaxis (PCA) screening test used to evaluate the present compounds is generally regarded as one of the best animal models for use in predicting the antiallergy activity of test compounds in man. Briefly, the method consists of passive sensitization of skin sites on the test animals with reaginic antibodies followed after 24 hours by administration of the test drug and antigen challenge. The allergic response is measured by use of Evans' blue dye and is evaluated by the spot diameter at the injection side. Details of the test are provided below.
A substituted ovalbumin antigen is used both as immunogen and challenging antigen. The antigen is prepared as follows: 500 mg. ovalbumin (EA) and 500 mg. K2 CO3 are dissolved in 25 ml. distilled H2 O and stirred at room temperature for 5 minutes. Five hundred (500) mg. dinitrobenzene sulfonic acid, Na^+ salt, (previously recrystallized from hot absolute ethanol) is then added slowly with continued stirring. The reaction mixture is then immediately placed in the dark and allowed to proceed for 2 hours with constant stirring. After 2 hours the mixture is placed in suitable dialysis tubing and dialyzed against 5 changes (4 liters each) of distilled H2 O at 5° C. After dialysis the product is lyophilized and stored at room temperature in a brown or amber container. The antigen obtained will appear as a light yellow, amorphous solid which is very soluble in water or saline. It is designated as DNP denatured ovalbumin (DNP-d EA).
Adult, male Sprague-Dawley rats are used as a source or reagin-rich antisera for the PCA model. Immunization is by a combination of DNP-d EA on Al(OH)3 gel and B. pertussis vaccine. Preparation of the DNP-d EA - gel immunogen is as follows: Dissolve the DNP-d EA in TBS so as to give a concentration of 10 mg./ml. Slowly add 1 ml. of this solution to 10 ml. Al(OH)3 gel (10 mg. solids/ml.) with constant stirring at room temperature. Stir the mixture an additional 30 minutes to insure a uniform adsorption of antigen on gel.
The resulting preparation is then used in combination with phase I B. pertussis vaccine to immunize male S/D rats as follows: For each rat administer 0.1 ml. DNP-d EA - gel suspension intramuscularly in each hind leg (200 μg DNP-d EA and 2 mg. gel total dose). Follow these injections by the intraperitoneal administration of 1.0 ml. B. pertussis vaccine (10-20 × 10^9 organisms). The use of light ether anesthesia during this procedure is recommended to insure proper intramuscular and intraperitoneal injections. Nine days following immunization (but no longer than 10) the animals are exsanguinated by cardiac puncture or abdominal aorta cannulation under ether or pentobarbital anesthesia. The collected whole blood is allowed to clot, the serum separated by centrifugation and the individual serum samples stored frozen until assayed for IgE content.
Individual serum samples should be screened for reaginic antibody concentration before being pooled with other sera, as not all rats respond to immunization procedures with reagin production. A 1:50 saline dilution of serum from each immunized rat is used for this purpose. Intradermal injections of 0.05 ml. of the diluted sera are made in the shaven backs of two small female recipient rats, 100-120 gms. Several serum samples can be tested simultaneously in recipient animals. After a 24 to 48 hour latent period antigen challenge is accomplished by intravenous administration to each rat of 1 mg. DNP-d EA in 0.5 ml. 0.5% Evans' blue dye in saline. Sera which show positive PCA reactions at the 1:50 dilution, as measured 20 to 30 minutes post-challenge are pooled, dispensed in small aliquots and stored at -70° C. or lower until used. Negative sera may be discarded.
The IgE titer of the antisera pool should then be determined. […]

[1] abbreviates: po, 10 minutes prior to antigen challenge, Table 1, read-out: Rat PCA Test ID50, p.o. (dose of compound that inhibits 50% of the response).
[2] abbreviates: iv, 1-5 minutes prior to antigen challenge (DSCG: at the time of antigen challenge), read-out: Rat PCA Test ID50, i.v. (dose of compound that inhibits 50% of the response).
The mark [3] stands for this setting: po, 10 minutes prior to antigen challenge, Table II and its footnote, read-out: Rat PCA Test ID50, p.o. (dose of compound that inhibits 50% of the response).

Regarding `CCOC(=O)c1cnc2n(c1=O)CC(CC)c1ccccc1-2` (racemic) [Example 10B, ethyl (±)-7-Ethyl-6,7-dihydro-4-oxo-4H-pyrimido[2,1-a]isoquinoline-3-carboxylate], under setting [1], the ED50 was 0.13 mg/kg.

Turning to `C=CCC1Cn2c(ncc(C(=O)OCC)c2=O)-c2cc(OC)ccc21` (racemic) [Example 10D, ethyl (±)-7-Allyl-6,7-dihydro-10-methoxy-4-oxo-4H-pyrimido[2,1-a]-3-carboxylate], under setting [1], the ED50 was ~0.31 mg/kg.

Turning to `CCC1Cn2c(ncc(C(=O)O)c2=O)-c2ccccc21` (racemic) [Example 11C, (±)-7-ethyl-6,7-dihydro-4-oxo-4H-pyrimido[2,1-a]isoquinoline-3-carboxylic Acid], the ED50 under setting [1] was determined as 0.048 mg/kg.

For the molecule `C=CCC1Cn2c(ncc(C(=O)O)c2=O)-c2cc(OC)ccc21` (racemic) [Example 11E, (±)-7-allyl-6,7-dihydro-10-methoxy-4-oxo-4H-pyrimido[2,1-a]isoquinoline-3-carboxylic Acid], under setting [1], the ED50 is ~0.077 mg/kg.

As to `CCOC(=O)c1cnc2n(c1=O)CC(CC(OC)OC)c1ccc(OC)cc1-2` (racemic) [Example 22 (CH2 CH(OMe)2), Ethyl (±)-6,7-Dihydro-7-(2,2-dimethoxyethyl)-10-methoxy-4-oxo-4H-pyrimido[2,1-a]isoquinoline-3-carboxylate], the ED50 under setting [1] is ~3.3 mg/kg.

Turning to `CCOC(=O)c1cnc2n(c1=O)CC(CC=O)c1ccc(OC)cc1-2` (racemic) [Example 22 (CH2 CHO), Ethyl (±)-7-Formylmethyl-6,7-dihydro-10-methoxy-4-oxo-4H-pyrimido[2,1-a]isoquinoline-3-carboxylate], the ED50 under setting [1] is ~20 mg/kg.

Turning to `CCC1Cn2c(ncc(-c3nnn[nH]3)c2=O)-c2ccccc21` (racemic) [Example 23, (±)-7-Ethyl-6,7-dihydro-3-(1H-tetrazol-5-yl)-4H-pyrimido[2,1-a]isoquinol-4-one], the ED50 under setting [1] worked out at 0.1 mg/kg.

As to `O=C(O)c1cnc2c3ccccc3ccn2c1=O` [2,3, 4-Oxo-4H-pyrimido[2,1-a]isoquinoline-3-carboxylic Acid], the ED50 under setting [2] amounted to 0.33 mg/kg.

In the case of `CCOC(=O)c1cnc2c3ccccc3ccn2c1=O` [Example 1, Ethyl 4-Oxo-4H-pyrimido[2,1-a]isoquinoline-3-carboxylate], under setting [3], the ED50 is > 5 mg/kg.

For `CCOC(=O)c1cnc2c3ccccc3ccn2c1=N` [Example 3A, Ethyl 4-Imino-4H-pyrimido[2,1-a]isoquinoline-3-carboxylate], the ED50 under setting [3] is ~0.19 mg/kg.

On to `O=C(O)c1cnc2c3ccccc3c(O)cn2c1=O` [Example 5, 7-Hydroxy-4-oxo-4H-pyrimido[2,1-a]isoquinoline-3-carboxylic Acid], for which the ED50 under setting [2] is ~1.7 mg/kg.

For the molecule `CCOC(=O)c1cnc2n(c1=O)CCc1ccccc1-2` [Example 6, Ethyl 6,7-Dihydro-4-oxo-4H-pyrimido[2,1-a]isoquinoline-3-carboxylate], the ED50 under setting [1] is 2.3 mg/kg.

As for `O=C(O)c1cnc2n(c1=O)CCc1ccccc1-2` [Example 7, 6,7-Dihydro-4-oxo-4H-pyrimido[2,1-a]isoquinoline-3-carboxylic Acid], the ED50 under setting [1] was 7.9 mg/kg.

On to `O=c1c(-c2nnn[nH]2)cnc2c3ccccc3ccn12` [Example 8, 3-(1H-Tetrazol-5-yl)-4H-pyrimido[2,1-a]isoquinol-4-one], for which, under setting [2], the ED50 worked out at 0.04 mg/kg.

`CCOC(=O)c1cnc2n(c1=O)CCc1cc(OC)ccc1-2` [Example 9, Ethyl 6,7-Dihydro-9-methoxy-4-oxo-4H-pyrimido[2,1-a]isoquinoline-3-carboxylate]: the ED50 under setting [1] was ~13 mg/kg.

For `CCOC(=O)c1cnc2n(c1=O)CCc1ccc(OC)cc1-2` [Example 10A, ethyl 6,7-Dihydro-10-methoxy-4-oxo-4H-pyrimido[2,1-a]isoquinoline-3-carboxylate], under setting [1], the ED50 was ~0.81 mg/kg.

Regarding `CCOC(=O)c1cnc2n(c1=O)CCc1cc(OC)c(OC)cc1-2` [Example 10C, ethyl 6,7-Dihydro-9,10-dimethoxy-4-oxo-4H-pyrimido[2,1-a]isoquinoline-3-carboxylate], the ED50 under setting [1] was ~0.37 mg/kg.

For `COc1ccc2c(c1)CCn1c-2ncc(C(=O)O)c1=O` [Example 11A, 6,7-dihydro-9-methoxy-4-oxo-4H-pyrimido[2,1-a]isoquinoline-3-carboxylic Acid], the ED50 under setting [1] is 2.6 mg/kg.

As for `COc1ccc2c(c1)-c1ncc(C(=O)O)c(=O)n1CC2` [Example 11B, 6,7-dihydro-10-methoxy-4-oxo-4H-pyrimido[2,1-a]isoquinoline-3-carboxylicAcid], the ED50 under setting [1] was ~0.48 mg/kg.

Regarding `COc1cc2c(cc1OC)-c1ncc(C(=O)O)c(=O)n1CC2` [Example 11D, 6,7-dihydro-9,10-dimethoxy-4-oxo-4H-pyrimido[2,1-a]isoquinoline-3-carboxylic Acid], under setting [1], the ED50 was ~0.31 mg/kg.

As for `CCOC(=O)c1cnc2c3ccc(OC)cc3ccn2c1=O` [Example 12, Ethyl 9-Methoxy-4-oxo-4H-pyrimido[2,1-a]isoquinoline-3-carboxylate], the ED50 under setting [3] is ~31 mg/kg.

Turning to `CCOC(=O)c1cnc2c3cc(OC)ccc3ccn2c1=O` [Example 13A, ethyl 10-Methoxy-4-oxo-4H-pyrimido[2,1-a]isoquinoline-3-carboxylate], the ED50 under setting [3] was ~0.9 mg/kg.

In the case of `CCOC(=O)c1cnc2c3ccccc3c(CC)cn2c1=O` [Example 13B, ethyl 7-Ethyl-4-oxo-4H-pyrimido[2,1-a]isoquinoline-3-carboxylate], the ED50 under setting [3] was ~5 mg/kg.

For `CCOC(=O)c1cnc2c3cc(OC)c(OC)cc3ccn2c1=O` [Example 13C, ethyl 9,10-Dimethoxy-4-oxo-4H-pyrimido[2,1-a]isoquinoline-3-carboxylate], the ED50 under setting [3] was ~2.63 mg/kg.

As for `C=CCc1cn2c(=O)c(C(=O)OCC)cnc2c2cc(OC)ccc12` [Example 14, Ethyl 7-Allyl-10-methoxy-4-oxo-4H-pyrimido[2,1-a]isoquinoline-3-carboxylate], the ED50 under setting [3] was > 5 mg/kg.

Regarding `CCCc1cn2c(=O)c(C(=O)OCC)cnc2c2cc(OC)ccc12` [Example 15, Ethyl 10-Methoxy-4-oxo-7-propyl-4H-pyrimido[2,1-a]isoquinoline-3-carboxylate], under setting [3], the ED50 is ~16 mg/kg.

Consider `COc1ccc2ccn3c(=O)c(C(=O)O)cnc3c2c1` [Example 16, 10-Methoxy-4-oxo-4H-pyrimido[2,1-a]isoquinoline-3-carboxylic acid], for which the ED50 under setting [2] was ~1 mg/kg.

In the case of `CCc1cn2c(=O)c(C(=O)O)cnc2c2ccccc12` [Example 17A, 7-ethyl-4-oxo-4H-pyrimido[2,1-a]isoquinoline-3-carboxylic Acid], under setting [2], the ED50 was ~0.048 mg/kg.

For `COc1cc2ccn3c(=O)c(C(=O)O)cnc3c2cc1OC` [Example 17B, 9,10-dimethoxy-4-oxo-4H-pyrimido[2,1-a]isoquinoline-3-carboxylic Acid], under setting [3], the ED50 was ~0.01 mg/kg.

For `C=CCc1cn2c(=O)c(C(=O)O)cnc2c2cc(OC)ccc12` [Example 17C, 7-allyl-10-methoxy-4-oxo-4H-pyrimido[2,1-a]isoquinoline-3-carboxylic Acid], the ED50 under setting [2] is ~0.53 mg/kg.

Take `CCCc1cn2c(=O)c(C(=O)O)cnc2c2cc(OC)ccc12` [Example 17D, 10-methoxy-4-oxo-7-propyl-4H-pyrimido[2,1-a]isoquinoline-3-carboxylic Acid]: the ED50 under setting [2] is ~0.071 mg/kg.

Consider `COc1ccc2c(ccn3c(=O)c(C(=O)O)cnc23)c1` [Example 18, 9-Methoxy-4-oxo-4H-pyrimido[2,1-a]isoquinoline-3-carboxylic Acid], for which the ED50 under setting [2] is ~1.5 mg/kg.

For `O=C(O)c1cnc2n(c1=O)CCc1ccc(O)cc1-2` [Example 19, 6,7-Dihydro-10-hydroxy-4-oxo-4H-pyrimido[2,1-a]isoquinoline-3-carboxylic Acid], the ED50 under setting [1] was ~1.2 mg/kg.
